Columns and labels:
Assay type in all cases: functional, cell-based
[1] = system: DLD-1; assay: In vitro cytotoxicity against DLD-1 human tumor cell lines.
[2] = system: Caov-3 cell line; assay: In vitro cytotoxicity against CAOV-3 human tumor cell line.
[3] = system: L1210; assay: In vitro cytotoxicity against L1210 mouse leukemia tumor cell line.
[4] = system: KATO III stomach cancer cell line; assay: In vitro cytotoxicity against KATO-III human tumor cell line.
[5] = system: A 172; assay: In vitro cytotoxicity against A172 human tumor cell lines.

O=C(Nc1ccccc1)OCCC1(O)C(=O)OCc2c1cc1n(c2=O)Cc2cc3ccccc3nc2-1 (stereo not given)
IC50 [1]: 1.2 µM | IC50 [2]: 3.72 µM | IC50 [3]: 6.87 µM | IC50 [4]: 5.38 µM | IC50 [5]: 0.06 µM

COCCOCOCCC1(O)C(=O)OCc2c1cc1n(c2=O)Cc2cc3ccccc3nc2-1 (stereo not given)
IC50 [1]: 15.1 µM | IC50 [2]: 1.92 µM | IC50 [3]: 4.97 µM | IC50 [4]: 53 µM | IC50 [5]: 4.04 µM

O=C(Nc1ccccc1)OCC1(O)C(=O)OCc2c1cc1n(c2=O)Cc2cc3ccccc3nc2-1 (stereo not given)
IC50 [1]: 4.24 µM | IC50 [2]: 1.58 µM | IC50 [3]: 2.77 µM | IC50 [4]: 13.1 µM | IC50 [5]: 2.77 µM

CC(C)NC(=O)OCC1(O)C(=O)OCc2c1cc1n(c2=O)Cc2cc3ccccc3nc2-1 (stereo not given)
IC50 [1]: 23.4 µM | IC50 [2]: 22.5 µM | IC50 [3]: 5.97 µM | IC50 [4]: 72.3 µM | IC50 [5]: 11.2 µM

CC(C)NC(=O)OCCC1(O)C(=O)OCc2c1cc1n(c2=O)Cc2cc3ccccc3nc2-1 (stereo not given)
IC50 [1]: 11 µM | IC50 [2]: 1.42 µM | IC50 [3]: 9.41 µM | IC50 [4]: 46.5 µM | IC50 [5]: 5.25 µM

CCOCOCCC1(O)C(=O)OCc2c1cc1n(c2=O)Cc2cc3ccccc3nc2-1 (stereo not given)
IC50 [1]: 1.07 µM | IC50 [2]: 1.85 µM | IC50 [3]: 1.42 µM | IC50 [4]: 19.3 µM | IC50 [5]: 1.37 µM

COCC(=O)OCC1(O)C(=O)OCc2c1cc1n(c2=O)Cc2cc3ccccc3nc2-1 (stereo not given)
IC50 [1]: 47.1 µM | IC50 [2]: 12.9 µM | IC50 [3]: 13.6 µM | IC50 [4]: > 100 µM | IC50 [5]: 17.6 µM

COCC(=O)OCCC1(O)C(=O)OCc2c1cc1n(c2=O)Cc2cc3ccccc3nc2-1 (stereo not given)
IC50 [1]: 31.8 µM | IC50 [2]: 6.39 µM | IC50 [3]: 24.5 µM | IC50 [4]: 3.05 µM | IC50 [5]: 6.99 µM

COCCOCOCC1(O)C(=O)OCc2c1cc1n(c2=O)Cc2cc3ccccc3nc2-1 (stereo not given)
IC50 [1]: 25.8 µM | IC50 [2]: 6 µM | IC50 [3]: 22.2 µM | IC50 [4]: 83.5 µM | IC50 [5]: 4.38 µM

CC(=O)OCC1(O)C(=O)OCc2c1cc1n(c2=O)Cc2cc3ccccc3nc2-1 (stereo not given)
IC50 [1]: 1.22 µM | IC50 [2]: 0.82 µM | IC50 [3]: 1.71 µM | IC50 [4]: 9.43 µM | IC50 [5]: 1.53 µM

CC(=O)OCCC1(O)C(=O)OCc2c1cc1n(c2=O)Cc2cc3ccccc3nc2-1 (stereo not given)
IC50 [1]: 7.04 µM | IC50 [2]: 4.23 µM | IC50 [3]: 5.09 µM | IC50 [4]: 0.98 µM | IC50 [5]: 3.99 µM

CCOCOCC1(O)C(=O)OCc2c1cc1n(c2=O)Cc2cc3ccccc3nc2-1 (stereo not given)
IC50 [1]: 17.1 µM | IC50 [2]: 17.6 µM | IC50 [3]: 3.4 µM | IC50 [4]: 40.7 µM | IC50 [5]: 11.1 µM

COCOCC1(O)C(=O)OCc2c1cc1n(c2=O)Cc2cc3ccccc3nc2-1 (stereo not given)
IC50 [1]: 2.41 µM | IC50 [2]: 4 µM | IC50 [3]: 1.65 µM | IC50 [4]: 23.2 µM | IC50 [5]: 8.39 µM

O=C1OCc2c(cc3n(c2=O)Cc2cc4ccccc4nc2-3)C1(O)CO (stereo not given)
IC50 [1]: 17.8 µM | IC50 [2]: 2.17 µM | IC50 [3]: 3.97 µM | IC50 [4]: 11.5 µM | IC50 [5]: 7.19 µM

O=C1OCc2c(cc3n(c2=O)Cc2cc4ccccc4nc2-3)C1(O)CCO (stereo not given)
IC50 [1]: 2.5 µM | IC50 [2]: 6.31 µM | IC50 [3]: 6.31 µM | IC50 [4]: 9.72 µM | IC50 [5]: 4.47 µM

— ChEMBL document CHEMBL1151007, “Synthesis and in vitro cytotoxicity of (RS)-20-desethyl-20-substituted camptothecin analogues” (Bioorg Med Chem Lett, 1996)
